Data reported in patent US9222118B2 (priority 2008, dated 2015).

Key:
EbolaΔVP30-GFP virus = experiment: microbe, parasite or virus in culture; format: cell-based, Zaire ebolavirus; conditions: for % GFP inhibition: 5 µM; for IC50: read-out: IC50

Row | Compound | % GFP inhibition (EbolaΔVP30-GFP virus) [%] | % cell viability (VeroVP30 cells) [%] | IC50 (EbolaΔVP30-GFP virus) [nM] | CC50 (VeroVP30 cells) [nM]
1 | 1-Deacetoxy-1-oxo-3,7-dideacetylkhivorin | 19 | 94 |  | 
2 | 3beta-Hydroxydeoxydesacetoxy-7-oxogedunin | 75 | 81 |  | 
3 | 6-Hydroxyangolensic acid methyl ester | 15 | 94 |  | 
4 | 7-Deacetoxy-3-deacetyl-7-oxokhivorin | 92 | 80 | 560 | > 10000
5 | 7-Deacetyldihydrogedunin | −30 | 85 |  | 
6 | 11alpha-Acetoxykhivorin | −47 | 93 |  | 
7 | CC1(C)C(=O)[C@@H]2O[C@@H]2[C@@]2(C)C1C[C@@H](O)[C@]1(C)C2CC[C@@]2(C)[C@H](c3ccoc3)OC(=O)C3OC321 (stereo partly drawn) [1,2alpha-Epoxydeacetoxydihydrogedunin] | 75 | 77 |  | 
8 | CC1(C)C2CC(=O)[C@]3(C)C(CC[C@@]4(C)[C@H](c5ccoc5)OC(=O)C5OC543)[C@@]2(C)[C@@H](O)C[C@H]1O (stereo partly shown) [1,3-Dideacetyl-7-deacetoxy-7-oxokhivorin] | 100 | 78 | < 150 | > 10000
9 | CC(=O)O[C@@H]1C[C@H]2C(C)(C)[C@H](O)C[C@H](O)[C@]2(C)[C@H]2CC[C@@]3(C)[C@H](c4ccoc4)OC(=O)[C@H]4O[C@]43[C@@]21C [1,3-Dideacetylkhivorin] | 82 | 78 |  | 
10 | CC1(C)C2CC(=O)[C@]3(C)C(CC[C@@]4(C)[C@H](c5ccoc5)OC(=O)[C@H]5O[C@]543)[C@@]2(C)C(=O)C[C@H]1O (stereo partly shown) [1,7-Dideacetoxy-1,7-dioxo-3-deacetylkhivorin] | 14 | 87 |  | 
11 | CC(=O)O[C@@H]1CC(=O)[C@@]2(C)C(CC(=O)[C@]3(C)C2CC[C@@]2(C)[C@H](c4ccoc4)OC(=O)C4OC423)C1(C)C (stereo partly shown) [1,7-Dideacetoxy-1,7-dioxokhivorin] | 39 | 88 |  | 
12 | CC(=O)O[C@@H]1C[C@H]2C(C)(C)CCC(=O)[C@]2(C)[C@H]2CC[C@@]3(C)[C@H](c4ccoc4)OC(=O)[C@H]4O[C@]43[C@@]21C [2,3-Dihydroisogedunin] | −17 | 91 |  | 
13 | CC(=O)O[C@H]1C[C@@H](O)C(C)(C)[C@@H]2C[C@@H](OC(C)=O)[C@]3(C)[C@H](CC[C@@]4(C)[C@@H](c5ccoc5)OC(=O)[C@H]5O[C@@]534)[C@@]12C [3-Deacetylkhivorin] | 6 | 102 |  | 
14 | CC(=O)O[C@@H]1CC2C(C)(C)[C@H](O)CC[C@]2(C)C2CC[C@@]3(C)[C@H](c4ccoc4)OC(=O)C4OC43[C@@]21C (stereo partly drawn) [3alpha-Hydroxydeoxodihydrogedunin] | 85 | 94 |  | 
15 | CC(=O)O[C@H]1CC[C@]2(C)[C@H]3CC[C@@]4(C)[C@H](c5ccoc5)OC(=O)[C@H]5O[C@]54[C@]3(C)[C@H](OC(C)=O)C[C@H]2C1(C)C [3beta-Acetoxydeoxodihydrogedunin] | 90 | 80 |  | 
16 | CC(=O)OC1CC2C(C)(C)[C@@H](O)CC[C@]2(C)C2CC[C@]3(C)[C@H](c4ccoc4)OC(=O)[C@H]4O[C@]43[C@]12C (stereo partly drawn) [3beta-Hydroxydeoxodihydrogedunin] | 75 | 79 |  | 
17 | C=C1C2CC[C@@]3(C)[C@H](c4ccoc4)OC(=O)C[C@]13O[C@H]1CC(=O)C(C)(C)[C@H](C(OC(C)=O)C(=O)OC)[C@@]21C (stereo partly shown) [6-Acetoxyangolensic acid methyl ester] | 32 | 88 |  | 
18 | CC(=O)O[C@H]1C[C@@H](OC(C)=O)C(C)(C)C2CC(=O)[C@]3(C)C(CC[C@@]4(C)[C@H](c5ccoc5)OC(=O)[C@H]5O[C@]543)[C@]21C (stereo partly shown) [7-Deacetoxy-7-oxokhivorin] | 26 | 90 |  | 
